Values of other authors as cited in patent US20110097427A1, “Molecular Targets and Dietary Modulators of Exercise-Induced Muscle Damage” (priority 2009, published 2011).

Settings: Risérus et al., 2008, Diabetes 57: 332-339

Cc1cc(SCc2sc(-c3ccc(C(F)(F)F)cc3)nc2C)ccc1OCC(=O)O [GW501516]
urinary isoprostanes: reduced
